Results published in patent US20210300924A1, “5-[6-[[3-(4,5,6,7-TETRAHYDROPYRAZOLO[4,3-C]PYRIDIN-1-YL)AZETIDIN-1-YL]METHYL]MORPHOLIN-4-YL]QUINOLINE-8-CARBONITRILE DERIVATIVES AND SIMILAR COMPOUNDS AS TLR7-9 ANTAGONISTS FOR TREATING SYSTEMIC LUPUS ERYTHEMATOSUS” (Hoffmann-La Roche Inc., priority 2018, published 2021).

What was measured:
hERG channel = molecular target: T1, hERG channel (Homo sapiens, UniProt Q12809); experiment: hERG channel inhibition assay (patch-clamp, CHOhERG cells); type: cell-based; details: for IC50 / IC20: CHOhERG cells, whole-cell patch-clamp; for IC20: human, CHO cells stably expressing hERG (CHOhERG cells); for hERG IC20/TLR7 IC50 / hERG IC20/TLR8 IC50 / hERG IC20/TLR9 IC50: safety ratio, >30 suggests sufficient window
T1 construct: expressed in transfected cells; host or cells: CHO (Chinese hamster ovary), CHOhERG

TLR9 = molecular target: T2, TLR9 (Homo sapiens, UniProt Q9NR96); experiment: Human PBMC cell-based assay; design: endogenous in cells; host or cells: human PBMC from healthy donor whole blood; details: CpG ODN 2216 stimulation, overnight, cytokine readout, read-out: hPBMC/TLR9 IC50
T2 sequence (Q9NR96 26-1032): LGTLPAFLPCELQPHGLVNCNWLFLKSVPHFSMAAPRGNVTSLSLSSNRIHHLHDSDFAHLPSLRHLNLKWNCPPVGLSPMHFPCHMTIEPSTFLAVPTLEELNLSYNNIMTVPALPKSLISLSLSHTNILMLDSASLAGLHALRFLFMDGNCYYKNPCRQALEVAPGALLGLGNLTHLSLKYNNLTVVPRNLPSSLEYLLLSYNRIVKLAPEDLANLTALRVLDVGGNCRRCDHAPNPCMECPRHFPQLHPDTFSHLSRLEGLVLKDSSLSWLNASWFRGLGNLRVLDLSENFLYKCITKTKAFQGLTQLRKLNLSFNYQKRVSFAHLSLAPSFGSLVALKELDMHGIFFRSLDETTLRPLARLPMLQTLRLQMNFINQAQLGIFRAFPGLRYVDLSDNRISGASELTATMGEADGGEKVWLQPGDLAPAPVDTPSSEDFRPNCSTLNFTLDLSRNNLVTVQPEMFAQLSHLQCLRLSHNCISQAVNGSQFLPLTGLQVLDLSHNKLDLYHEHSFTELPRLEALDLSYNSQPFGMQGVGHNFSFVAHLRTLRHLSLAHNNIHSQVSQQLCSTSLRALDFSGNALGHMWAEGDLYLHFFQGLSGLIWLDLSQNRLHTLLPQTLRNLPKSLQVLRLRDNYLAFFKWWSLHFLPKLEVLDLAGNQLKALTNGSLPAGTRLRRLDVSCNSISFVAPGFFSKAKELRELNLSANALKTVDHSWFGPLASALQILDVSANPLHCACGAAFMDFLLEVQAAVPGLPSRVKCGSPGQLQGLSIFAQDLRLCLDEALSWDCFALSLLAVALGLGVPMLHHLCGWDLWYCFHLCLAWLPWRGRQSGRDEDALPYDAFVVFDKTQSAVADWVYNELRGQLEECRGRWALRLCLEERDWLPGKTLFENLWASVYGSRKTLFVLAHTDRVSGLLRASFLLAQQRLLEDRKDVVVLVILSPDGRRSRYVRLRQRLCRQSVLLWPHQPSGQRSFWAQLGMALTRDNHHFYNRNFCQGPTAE
From the text: Human PBMC Cell-Based Assay
Unlike the HEK reporter cell lines, human peripheral blood mononuclear cell (PBMC) represents primary human immune cells in blood mainly consisting of lymphocytes, monocytes, and dendritic cells. These cells express TLR7, TLR8, or TLR9, and therefore are natural responders to respective ligand stimulation. Upon activation of these TLRs, PBMCs secrete similar cytokines and chemokines in vitro and in vivo, and therefore the in vitro potency of a TLR7/8/9 antagonist in human PBMC is readily translatable to its pharmacodynamics response in vivo.
Human peripheral blood mononuclear cells (PBMC) were isolated from freshly-drawn lithium-heparinized (Lithium Heparin Plus blood Collection tube, BD Vacutainer®) healthy donor whole blood by density gradient (Ficoll-Paque™ PLUS, GE Healthcare life Sciences). Briefly, […] was diluted with 25 mL PBS (without Ca^2+, Mg^2+) in a 50 mL conical tube with porous barrier (Leucosep tube, Greiner bio-one), where 15.5 mL Ficoll-Paque was under laid after spinning. Tubes were centrifuged for 20 minutes at 800×g (1946 rpm) with the brake in the off position, and PBMC were collected from the buffy coat. Cells were then washed twice in PBS, and red blood cells were lysed by suspension in 2 mL (Red Blood Cell Lysis Buffer, Alfa Aesar) for 5-10 minutes at room temperature. After a final wash in PBS, PBMC were resuspended at a final concentration of 2×10^6 cells/mL in RPMI-1640 media with GlutaMAX™ (Gibco) supplemented with 10% Fetal Bovine Serum (Sigma) and plated at 150 μL/well (3×10^5 cells/well) in tissue culture treated round bottom 96-well plates (Corning Incorporated). Antagonist compounds (compounds of this invention) solubilized and serial diluted in 100% DMSO were added in duplicate to cells to yield a final concentration of 1% DMSO (v/v). PBMC were incubated with antagonist compounds for 30 minutes at 37° C., 5% CO2 before adding various TLR agonist reagents in 48 μL complete media per well as follows (final concentrations indicated): CpG ODN 2216 (InvivoGen) at […] for TLR9, ORN 06/LyoVec (InvivoGen) at 1 μg/mL for TLR8 and R848 (InvivoGen) at 1 μg/mL for TLR7 and TLR8. PBMC were incubated overnight at 37° C. with 5% CO2. Cell culture supernatants were collected, and levels of various human cytokines were assessed by Luminex assay (ProcartaPlex™ Multiplex Immunoassay, Invitrogen) or ELISA procedure according to the manufacturer's recommended protocol (eBioscience, ThermoFisher Scientific). Viability of the cells was also checked with Cell Viability Assay (CellTiter Glo® Luminescent Cell Viability Assay, Promega).

T1 sequence (Q12809 whole entry): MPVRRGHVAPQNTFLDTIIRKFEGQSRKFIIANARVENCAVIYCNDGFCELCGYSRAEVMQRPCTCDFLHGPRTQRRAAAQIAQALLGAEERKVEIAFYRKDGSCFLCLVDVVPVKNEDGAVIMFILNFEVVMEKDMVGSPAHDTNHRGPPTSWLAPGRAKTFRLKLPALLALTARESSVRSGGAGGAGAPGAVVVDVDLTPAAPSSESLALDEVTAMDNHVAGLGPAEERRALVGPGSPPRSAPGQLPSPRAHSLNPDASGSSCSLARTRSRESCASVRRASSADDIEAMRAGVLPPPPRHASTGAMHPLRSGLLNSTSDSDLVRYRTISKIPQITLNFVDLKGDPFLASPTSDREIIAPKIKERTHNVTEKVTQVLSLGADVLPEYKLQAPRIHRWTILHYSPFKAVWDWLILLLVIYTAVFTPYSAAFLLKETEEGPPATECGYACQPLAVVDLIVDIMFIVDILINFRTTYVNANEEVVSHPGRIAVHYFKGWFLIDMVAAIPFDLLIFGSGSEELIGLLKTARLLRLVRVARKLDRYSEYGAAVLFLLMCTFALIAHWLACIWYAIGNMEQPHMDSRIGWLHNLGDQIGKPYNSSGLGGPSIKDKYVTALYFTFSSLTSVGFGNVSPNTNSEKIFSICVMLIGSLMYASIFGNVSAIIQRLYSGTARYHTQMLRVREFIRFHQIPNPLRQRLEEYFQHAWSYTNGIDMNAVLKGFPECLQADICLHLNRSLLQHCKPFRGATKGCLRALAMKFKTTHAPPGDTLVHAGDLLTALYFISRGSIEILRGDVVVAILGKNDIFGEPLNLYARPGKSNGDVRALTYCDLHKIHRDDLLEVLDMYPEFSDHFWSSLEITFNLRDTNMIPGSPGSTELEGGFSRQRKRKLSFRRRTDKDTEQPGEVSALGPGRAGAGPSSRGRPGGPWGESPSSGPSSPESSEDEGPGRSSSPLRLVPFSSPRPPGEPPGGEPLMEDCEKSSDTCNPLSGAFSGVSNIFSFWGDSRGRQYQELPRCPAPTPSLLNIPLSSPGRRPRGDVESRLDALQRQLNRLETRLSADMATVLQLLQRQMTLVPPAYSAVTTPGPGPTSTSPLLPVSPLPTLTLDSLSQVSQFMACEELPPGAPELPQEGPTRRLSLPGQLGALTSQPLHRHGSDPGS

| SMILES | IC50 (hERG channel) [µM] | IC20 (hERG channel) [µM] | hERG IC20/TLR7 IC50 (hERG channel) | hERG IC20/TLR8 IC50 (hERG channel) | hERG IC20/TLR9 IC50 (hERG channel) | IC50 (TLR9) [µM] |
| --- | --- | --- | --- | --- | --- | --- |
| C[C@@H]1Cc2cn(C3CN(C[C@H]4CN(c5ccc(C#N)c6ncccc56)C[C@@H](C)O4)C3)nc2CN1 (single isomer, unassigned) [Example 30] | > 20 | > 10 | >2083.3 | >735.3 | >175.7 | 0.162 |
| C[C@@H]1Cc2c(cnn2C2CN(C[C@H]3CN(c4ccc(C#N)c5ncccc45)C[C@@H](C)O3)C2)CN1 [Example 16, 5-[(2R,6S)-2-methyl-6-[[3-[(6R)-6-methyl-4,5,6,7-tetrahydropyrazolo[4,3-c]pyridin-1-yl]azetidin-1-yl]methyl]morpholin-4-yl]quinoline-8-carbonitrile] | > 20 | > 10 | >2381.0 | >641.0 | >129.0 | 0.084 |
| C[C@@H]1CN(c2ccc(C#N)c3ncccc23)C[C@H](CN2CC(n3cc4c(n3)[C@@H](C)NCC4)C2)O1 (single isomer, unassigned) [Example 33] | > 20 | > 10 | >1369.9 | >763.4 | >291.5 | 0.072 |
| Cc1c2c(nn1C1CN(C[C@H]3CN(c4ccc(C#N)c5ncccc45)C[C@@H](C)O3)C1)CCNC2 [Example 13, 5-[(2R,6S)-2-methyl-6-[[3-(3-methyl-4,5,6,7-tetrahydropyrazolo[4,3-c]pyridin-2-yl)azetidin-1-yl]methyl]morpholin-4-yl]quinoline-8-carbonitrile] | > 20 | > 10 | >694.4 | >222.2 | >84.5 | 0.119 |
| C[C@@H]1CN(c2ccc(C#N)c3ncccc23)C[C@H](CN2CC(n3cc4c(n3)CN(C)CC4)C2)O1 [Example 5, 5-[(2R,6S)-2-methyl-6-[[3-(6-methyl-5,7-dihydro-4H-pyrazolo[3,4-c]pyridin-2-yl)azetidin-1-yl]methyl]morpholin-4-yl]quinoline-8-carbonitrile] | > 20 | > 10 | >2857.1 | >1653.6 | >73.1 | 0.318 |
